Measured values: PMC12029898, “Cellular Metabolomics Reveals Differences in the Scope of Liver Protection Between Ammonium-Based Glycyrrhizinate and Magnesium Isoglycyrrhizinate” (Metabolites, 2025)

Assays:
LO2 cells [1] = experiment: Cell viability of LO2 cells exposed to APAP (MTT), liver injury model; assay type: cell-based, human
Method: Cell culture and model construction: The experimental LO2 cells were provided by Shanghai Fuheng Biotechnology Co., Ltd. (Shanghai, China). Cells induced by APAP formed a cell model of liver injury. The cells were cultured in RPMI 1640 medium containing 100 units of penicillin, 100 μg/mL streptomycin, and 10% FBS at 37 °C and 5% CO2 atmosphere. The cells were changed daily and passaged when the contact reached 80%. Cells in the logarithmic growth phase were seeded onto a 96-well plate at a density of 4000 cells per well and subsequently incubated at 37 °C in an atmosphere containing 5% CO2. After 24 h of pre-incubation, cells were exposed to APAP at concentrations of 2, 4, 8, and 16 mM, followed by continued culture for the designated time periods. Subsequently, 20 μL of MTT solution (5 mg/mL, dissolved in PBS) was added to each well and incubated for an additional 4 h at 37 °C. To dissolve the formed formazan crystals, 200 μL of DMSO was added. The absorbance values were then measured at 490 nm using a microplate reader ([sequence] 200 PRO, Tecan, Männedorf, Switzerland). The cell survival rates at different APAP concentrations were calculated, and a cell survival rate below 60% was considered indicative of successful model construction. The specific formula employed for calculating the cell survival rate is provided below. […] Cell viability=AAPAP−ABlank/AControl−ABlank

[2] = Pharmacokinetics after oral gavage in rats (plasma, HPLC); assay type: in vivo, Sprague Dawley rats; conditions: male, Sprague Dawley, rat, po, 20 mg/kg
Description: Nine male Sprague Dawley rats, each weighing approximately 250 g ± 25 g, were meticulously selected as the experimental subjects (sourced from Beijing SPF Biotechnology Co., Ltd., (Beijing, China) SPF grade, licensed under SCXK (Jing) 2019-0010). The experimental protocol was approved by the Institutional Animal Care and Use Committee of Hebei Medical University and conformed to the Guide for Care and Use of Laboratory Animals (approval NO. 2023040). Prior to and throughout the experimental period, the rats were provided with unrestricted access to standard rodent chow and water. The housing facilities for these animals adhered strictly to the standards outlined by the International Association for the Evaluation and Certification of Laboratory Animal Care, ensuring optimal conditions for the animals’ wellbeing. The experimental feeding environment was maintained at a temperature of 22–24 °C, with a relative humidity of 50 ± 5%, and a 12-h light/dark cycle to mimic natural diurnal rhythms. The rats were randomly allocated into three distinct groups, with an equal distribution of three rats per group. MONO, DIAM, and MAGN were administered orally at a dose of 20 mg/kg. The amount administered was calculated as the contents of glycyrrhizinate or magnesium isoglycyrrhizinate. Each compound was dissolved in 0.5% carboxymethylcellulose sodium (CMC-Na) solution and delivered immediately to rats via gastric gavage. Blood samples of 0.2 mL were obtained at various time points post-administration (0.5, 1, 2, 4, 8, 12, 24, and 48 h) and centrifuged at 1500× g for 10 min at 4 °C, allowing for the separation of plasma, which was collected and stored at −20 °C for subsequent analysis.
Fifty microliters (50 μL) of plasma was obtained and spiked with 10 μL of dipyridamole solution as an internal standard. Subsequently, 100 μL of acetonitrile was added to precipitate the proteins, followed by vortex mixing. The mixture was centrifuged at 6000× g for 10 min at 4 °C. The resulting precipitate was discarded, and the supernatant was evaporated to dryness under a nitrogen stream at 60 °C. The residual precipitate was redissolved in 200 μL of mobile phase, vortexed for 5 min, and sonicated for 30 s. Following this, the solution was centrifuged again at 6000× g for 10 min at 4 °C. Then, 10 μL of the supernatant was injected and the chromatogram was recorded for analysis.
HPLC was employed using the Agilent 1200 series system (Agilent Technologies, Wilmington, DE, USA) with Agilent Chemstation LC B.04.03 Software. The separation was on a Venusil MP C18(2) chromatographic column (150 × 4.6 mm, 5 μm, Agela Technologies, Tianjin, China) based on the United States Pharmacopeia with adjustments performed. Isocratic elution with a mixture of 40 volumes of acetonitrile and 60 volumes of water (containing 0.5% acetic acid) was used. The flow rate and temperature were 1.0 mL/min and 40 °C, respectively. A volume of 10 μL of the sample was injected under 254 nm for analyses and with three repetitions for each test (n = 3). All the pharmacokinetic data were calculated by Drug and Statistics (DAS) 2.0 software (Mathematical Pharmacology Professional Committee of China, Shanghai, China) and presented as mean ± SD. The main parameters such as the area under the curve (AUC), the maximum plasma concentration (Cmax), the time to Cmax (Tmax), and elimination half-life (t1/2) were tabulated.

LO2 cells [3] = experiment: Hepatocyte protection rate in APAP-induced LO2 cells (MTT); assay type: cell-based, human; conditions: 16 mM APAP, 200, 400 and 600 μM
Method: Assessment of hepatocyte-protective effects: Cells in the logarithmic growth phase were seeded onto a 96-well plate at a density of 4000 cells per well, followed by incubation at 37 °C in an atmosphere containing 5% CO2. After 24 h of incubation, cells were treated with 16 mM APAP, followed by the addition of MONO, DIAM, and MAGN at three escalating concentrations (200, 400, and 600 μM for each compound). The cell survival rate was quantitatively evaluated using MTT method. The protective efficacy of the compounds was then calculated employing the formula outlined below.(1) Hepatocytes protection rate=AGlycyrrhizinate−AAPAP/Anormal−AAPAP×1

Row | Compound | cytotoxicity towards LO2 cells (LO2 cells [1]; APAP 2-16 mM) | cell survival rate (LO2 cells [1]; APAP concentrations exceeding 16 mM, 24 h of APAP exposure) | half-life ([2]; n = 3) | AUC(0-t) ([2]; n = 3, read-out: AUC0-t) | Cmax ([2]; n = 3, read-out: Cmax) | Tmax ([2]; n = 3, read-out: Tmax) | hepatocyte protection (therapeutic effect) (LO2 cells [3])
1 | CC(=O)Nc1ccc(O)cc1 [APAP, acetaminophen] | concentration-dependent cytotoxicity | below 60% | – | – | – | – | –
2 | CC1(C)[C@@H](O[C@H]2O[C@H](C(=O)O)[C@@H](O)[C@H](O)[C@H]2O[C@@H]2O[C@H](C(=O)O)[C@@H](O)[C@H](O)[C@H]2O)CC[C@]2(C)[C@H]3C(=O)C=C4[C@@H]5C[C@@](C)(C(=O)O)CC[C@]5(C)CC[C@@]4(C)[C@]3(C)CC[C@@H]12 [MONO, monoammonium glycyrrhizinate] | – | – | 649 ± 39.6 min | 320 ± 78.6 µg·h/mL | 15000 ± 3640 ng/mL | 8 h | concentration-dependent therapeutic effects
